Assay results published in patent publication US7807624B2, “Methods and compositions for promoting attachment of cells of endothelial cell lineage to medical devices” (Affinergy, Inc., priority 2006, dated 2010).
Where a SMILES comes first, the peptide text is derived from it.

Legend:
[1] = Phage display selection and ELISA-type peptide binding to teflon
From the text: (§1) For example, a variety of different phage display libraries were screened for peptides that bind to a selected target substrate (e.g., a substrate selected to find a binding domain useful in the present invention). The substrate was either bound to or placed in (depending on the selected substrate) the wells of a 96 well microtiter plate. Nonspecific binding sites on the well surface of the polystyrene microtiter plate were blocked with a buffer containing 1% bovine serum albumin after overnight incubation at 4° C. The wells were then washed 5 times with a buffer containing phosphate buffered saline with Tween™ 20 (“PBS-T”). […] To detect phage that specifically bind to the selected substrate, enzyme-linked immunosorbent (ELISA-type) assays were performed using an anti-phage antibody conjugated to a detector molecule, followed by the detection and quantitation of the amount of detector molecule bound in the assay.
(§2) Relative binding strengths of the peptides were determined by testing serial dilutions of the peptide for binding to the selected substrate (as compared to a substrate used as a negative control; i.e. a substrate other than the selected substrate). Plotting the absorbance observed across the concentration range for each peptide sequence yielded a binding curve and rough dissociation constant (“KD”) of the peptides to its target substrate. […]

[2] = test system: cells of endothelial cell lineage
Method: In this illustrative example, cells of endothelial cell lineage used as target cells for the selection and screening process were human adipose-derived stem cells (“ADAS cells”). […] Fibroblasts (16 Lu fibroblast cell line) were used as non-target cells in the selection and screening process.
These peptides were tested in a variety of assay formats for binding specificity against a panel of cells and cell lines to compare binding to cells of endothelial cell lineage (e.g., human umbilical vein endothelial cells, human coronary artery endothelial cells, porcine coronary artery endothelial cells, and human endothelial progenitor cells) versus binding to cells of an origin other than endothelial cell lineage (e.g., human artery smooth muscle cells, porcine artery smooth muscle cells, platelets, and other mammalian cell lines).

[3] = Peptide binding to titanium beads (phage selection, ELISA-type dilution series)
Method: As a specific illustrative example, titanium (in percent: Ti6Al4V) beads of approximately 5/32 of an inch diameter were washed with 70% ethanol, 40% nitric acid, distilled water, 70% ethanol, and acetone to remove any surface contaminants. One titanium bead was placed per well of 96-well polypropylene plate. Nonspecific binding sites on the titanium and the surface of the polypropylene were blocked with 1% bovine serum albumin (BSA) in PBS. The plate was incubated for 1 hour at room temperature with shaking at 50 rpm. The wells were then washed 5 times with 300 μl of PBS. Each library was diluted in PBS+1% BSA and was added at a concentration of 10^10 pfu/ml in a total volume of 250 μl. […]
as §2
As a specific example, titanium beads were blocked with 1% BSA in PBS for 30 minutes at room temperature. […] Beads were washed two times with PBS-T. PNPP (p-nitrophenyl phosphate) was used to develop the assay, and the absorbance was recorded at 405 nm. […]

[4] = Phage display selection and ELISA-type peptide binding to polystyrene
From the text: For example, a variety of different phage display libraries were screened for peptides that bind to a selected target substrate (e.g., a substrate selected to find a binding domain useful in the present invention). The substrate was either bound to or placed in (depending on the selected substrate) the wells of a 96 well microtiter plate. Nonspecific binding sites on the well surface of the polystyrene microtiter plate were blocked with a buffer containing 1% bovine serum albumin after overnight incubation at 4° C. The wells were then washed 5 times with a buffer containing phosphate buffered saline with Tween™ 20 (“PBS-T”). Each library was diluted in PBS-T and added at a concentration of 10^10 pfu/ml in a total volume of 100 μl. After 3 hour of incubation at room temperature with shaking at 50 rpm, unbound phage were removed by multiple washes with PBS-T. Bound phage were recovered by denaturation with 0.1 M glycine buffer, pH2.2. The eluted phage were neutralized with phosphate buffer, and then added to E. coli cells in growth media. The cell and phage-containing media was cultured by incubation overnight at 37° C. in a shaker at 200 rpm. Phage-containing supernatant was harvested from the culture after centrifuging the culture. […] To detect phage that specifically bind to the selected substrate, enzyme-linked immunosorbent (ELISA-type) assays were performed using an anti-phage antibody conjugated to a detector molecule, followed by the detection and quantitation of the amount of detector molecule bound in the assay.
as §2

[5] = Phage display selection and ELISA-type peptide binding to polyurethane
From the text: as §1, §2

In the case of CIKYPFLYCCLLSLFLFS [SEQ ID NO:56], the “binding specificity for teflon” value [1] is reported as “specifically bind to teflon”.
For `CC(C)C[C@H](NC(=O)[C@H](C)NC(=O)[C@H](C)NC(=O)[C@H](CO)NC(=O)[C@@H]1CCCN1C(=O)[C@H](CCCNC(=N)N)NC(=O)[C@H](CC(C)C)NC(=O)[C@H](CC(C)C)NC(=O)[C@H](CO)NC(=O)[C@@H](NC(=O)[C@H](Cc1c[nH]cn1)NC(=O)[C@H](CCC(N)=O)NC(=O)[C@H](CS)NC(=O)[C@H](CO)NC(=O)[C@H](CO)NC(=O)[C@@H](N)CO)C(C)C)C(=O)NCC(=O)N1CCC[C@H]1C(=O)N[C@@H](CC(=O)O)C(=O)N[C@@H](CC(N)=O)C(=O)N[C@@H](CS)C(=O)N[C@@H](CS)C(=O)N[C@@H](CO)C(=O)N[C@@H](CCCNC(=N)N)C(=O)NCC(=O)N[C@@H](CO)C(=O)N[C@@H](CO)C(=O)NCC(=O)N[C@@H](CCCCN)C(=O)O` [SEQ ID NO:95] (H-SSSCQHVSLLRPSAALGPDNCCSRGSSGK-OH; N-terminus and C-terminus assumed), the EC50 [2] was less than 10 µM.
Compound `CC(C)C[C@H](NC(=O)[C@H](C)NC(=O)[C@H](C)NC(=O)[C@H](CO)NC(=O)[C@@H]1CCCN1C(=O)[C@H](CCCNC(=N)N)NC(=O)[C@H](CC(C)C)NC(=O)[C@H](CC(C)C)NC(=O)[C@H](CO)NC(=O)[C@@H](NC(=O)[C@H](Cc1c[nH]cn1)NC(=O)[C@H](CCC(N)=O)NC(=O)[C@H](CS)NC(=O)[C@H](CO)NC(=O)[C@H](CO)NC(=O)[C@@H](N)CO)C(C)C)C(=O)NCC(=O)N1CCC[C@H]1C(=O)N[C@@H](CC(=O)O)C(=O)N[C@@H](CC(N)=O)C(=O)N[C@@H](CS)C(=O)N[C@@H](CO)C(=O)N[C@@H](CCCNC(=N)N)C(=O)NCC(=O)N[C@@H](CO)C(=O)N[C@@H](CO)C(=O)NCC(=O)N[C@@H](CCCCN)C(=O)O` [SEQ ID NO:96] (H-SSSCQHVSLLRPSAALGPDNCSRGSSGK-OH; N-terminus and C-terminus assumed) has an EC50 [2] of less than 10 µM.
With CWSRFRLFMLFCMFYLVS [SEQ ID NO:55] the “binding specificity for teflon” value [1] was “specifically bind to teflon”.
With SDKSHKHWYSYESKYGGS [SEQ ID NO:74] the “binding specificity for titanium” value [3] was “substantially retained binding specificity” and the reduction in binding ([3]; as compared to SEQ ID NO:73 (two cysteines substituted by serine)) was 10 fold.
With FFGFDVYDMSNAL [SEQ ID NO:19] the “binding specificity for polystyrene” value [4] was “substantially retain binding specificity for polystyrene”.
In the case of FSYSVSYAHPEGL [SEQ ID NO:21], the “binding specificity for polystyrene” value [4] is reported as “substantially retain binding specificity for polystyrene”.
For “SCYVNGHNSVWWVFWGVS (SCYVNGHNSVWVVVFWGVS) [SEQ ID NO:23]”, the “binding specificity for polyurethane” value [5] was “specifically binds to polyurethane”.
With FFPSSWYSHLGVL [SEQ ID NO:18] the “binding specificity for polystyrene” value [4] was “substantially retain binding specificity for polystyrene”.
